Source: US20110152267A1, “Compositions and Methods for Treating Hyperproliferative Disorders” (Texas Tech University System, priority 2009, published 2011)

Tests used:
Type in all cases: cell-based, human
[1] = system: A-549 lung adenocarcinoma cell line; test: DIMSCAN cytotoxicity, fenretinide + L-threo-sphinganines 3:1 (Example B13); conditions: 96 h
Experimental: (§1) Cytotoxicity Assay—Once again, cytotoxicity is determined using the DIMSCAN assay system (R. Proffitt et al., Cytometry 24, 204-213 (1996); T. Frgala et al., Mol Cancer Ther. 6:886-97, 2007). The system employs digital imaging microscopy to quantify viable cells, which selectively accumulate fluorescein diacetate to become brightly fluorescent. The system is capable of measuring cytotoxicity over a 4-5 log dynamic range by quenching the residual fluorescence of dead and dying cells with eosin Y and quantifying the total fluorescence of viable cells using digital thresholding. Measured fluorescence is directly proportionate to the number of viable cells. A comparison of the total fluorescence of a drug-treated cell population to the fluorescence of a similar number of untreated cells yields a survival fraction. In brief, 2000 to 10,000 cells/well (depending on size and growth rates) are replicate plated into 60 wells of a 96-well tissue culture plate in 0.1 mL of whole medium and allowed to attach overnight. Drug(s) are then added in 0.05 mL of whole medium to the final concentrations indicated. Drugs (fenretinide, and various chain length L-threo-sphinganines) were tested both as single agents and in a 3:1 ratio of fenretinide:sphinganine. C18-L-threo-sphinganine, or “safingol,” was also tested and results shown for reference. There are 12 wells treated per drug concentration. Twelve wells receive drug vehicle-only to the appropriate final concentration and serve as controls for the plate. Cells are incubated for 96 hours at 37° C. in ambient air with 5% CO2. Fluorescein diacetate is then added to each well in 0.05 mL media to a final concentration of 8 microgram/mL. Cells are incubated for a further 15 minutes at 37° C. and 0.03 mL of 0.5% eosin Y is added to each well. Total fluorescence of viable cells is then measured by digital imaging microscopy. Results were graphed as the ratio of the fluoresecence of drug-treated wells to non-drug treated control wells (i.e., Survival Fraction). All tests were performed at least twice. Representative results are shown.
(§2) The Combination Index (CI) is a term to describe mathematical modeling of the pharmacologic effects on cytotoxicity (cell death) of two drugs in combination based. Cytotoxic “synergy” is defined as a cell death affect which is greater than would be expected from a simple product of the single agent cytotoxicities alone (i.e. an “additive” effect). By Chou-Talalay analysis, a CI<0.9 on a Fraction Affected (“Fa”, i.e. fraction of cells killed) indicates synergy, with smaller numbers indicating greater synergy; a CI of 0.9-1.1 signifies an additive or near-additive effect; and a CI>1.1 means the drug combination is antagonistic.
Fenretinide and L-threo-sphinganines tested in human lung adenocarcinoma (lung cancer) cell line, A-549.

[2] = system: A-2058 melanoma cell line; test: DIMSCAN cytotoxicity, fenretinide + L-threo-sphinganines 3:1 (Example B11); conditions: 96 h
Experimental: as §1, §2
Fenretinide and L-threo-sphinganines tested in human melanoma (skin cancer) cell line, A-2058.

[3] = system: LNCaP prostate adenocarcinoma cell line; test: DIMSCAN cytotoxicity, fenretinide + L-threo-sphinganines 3:1 (Example B16); conditions: LNCaP.FGC
Experimental: as §1, §2
Fenretinide and L-threo-sphinganines tested in human prostate adenocarcinoma (prostate cancer) cell line, LNCaP.

[4] = system: HT-29 colorectal adenocarcinoma cell line; test: DIMSCAN cytotoxicity, fenretinide + L-threo-sphinganines 3:1 (Example B10); conditions: 96 h
Experimental: as §1, §2
Fenretinide and L-threo-sphinganines tested in human colorectal adenocarcinoma (colon cancer) cell line, HT-29.

[5] = system: COG-LL-317 acute lymphoblastic leukemia cell line; test: DIMSCAN cytotoxicity, fenretinide + L-threo-sphinganines 3:1 (Example B20)
Experimental: as §1, §2
(§3) Fenretinide and L-threo-sphinganines tested in human acute lymphoblastic leukemia (pediatric ALL, a blood cancer) cell lines, COG-LL-317 and MOLT-4.

[6] = system: MOLT-4 acute lymphoblastic leukemia cell line; test: as above
Experimental: as §1, §2, §3

[7] = system: U-118 Glioblastoma cell line; test: DIMSCAN cytotoxicity, fenretinide + L-threo-sphinganines 3:1 (Example B5); parameters: key to CI (Combination Index): CI<0.9 synergy, 0.9-1.1 additive, >1.1 antagonistic; conditions: U-118 MG, 96 h
Experimental: as §1, §2
Fenretinide and L-threo-sphinganines tested in human Glioblastoma (brain cancer) cell line, U-118.

[8] = system: OVCAR-8 ovarian adenocarcinoma cell line; test: DIMSCAN cytotoxicity, fenretinide + L-threo-sphinganines 3:1 (Example B15); parameters: key to CI (Combination Index): Chou-Talalay CI: <0.9 synergy, 0.9-1.1 additive, >1.1 antagonism; conditions: 96 h
Experimental: as §1, §2
Fenretinide and L-threo-sphinganines tested in human ovarian adenocarcinoma (ovarian cancer) cell line, OVCAR-8.

[9] = 4-HPR 1.5 μM + L-threo-sphinganine 0.5 μM
[10] = 4-HPR 3 μM + L-threo-sphinganine 1 μM
[11] = 4-HPR 6 μM + L-threo-sphinganine 2 μM
[12] = 4-HPR 9 μM + L-threo-sphinganine 3 μM
[13] = 4-HPR 12 μM + L-threo-sphinganine 4 μM

CCCCCCCCCCCCCCC[C@H](O)[C@@H](N)CO [C18, (2S,3S)-2-amino-1,3-octadecanediol, reference compound]
CI (Combination Index) [1, 9]: 1.0 | Fa (fraction affected) [1, 9]: 0.012 | CI (Combination Index) [1, 10]: 1.0 | Fa (fraction affected) [1, 10]: 0.05 | CI (Combination Index) [1, 11]: 1.0 | Fa (fraction affected) [1, 11]: 0.200 | CI (Combination Index) [1, 12]: 0.6 | Fa (fraction affected) [1, 12]: 0.700 | CI (Combination Index) [2, 9]: >1 | Fa (fraction affected) [2, 9]: 0.001 | CI (Combination Index) [2, 10]: >1 | Fa (fraction affected) [2, 10]: 0.01 | CI (Combination Index) [2, 11]: >1 | Fa (fraction affected) [2, 11]: 0.099 | CI (Combination Index) [2, 12]: 1.22 | Fa (fraction affected) [2, 12]: 0.815 | CI [3, 9]: 0.9 | Fa [3, 9]: 0.752 | CI [3, 10]: 0.3 | Fa [3, 10]: 0.971 | CI [3, 11]: 0.1 | Fa [3, 11]: 0.998 | CI [3, 12]: 0.1 | Fa [3, 12]: 0.999 | CI (Combination Index) [4, 9]: 0.9 | Fa (fraction affected) [4, 9]: 0.243 | CI (Combination Index) [4, 10]: 0.7 | Fa (fraction affected) [4, 10]: 0.756 | CI (Combination Index) [4, 11]: 0.5 | Fa (fraction affected) [4, 11]: 0.983 | CI (Combination Index) [4, 12]: 0.3 | Fa (fraction affected) [4, 12]: 0.999 | CI [5, 10]: 0.8 | Fa [5, 10]: 0.998 | CI [5, 11]: 0.6 | Fa [5, 11]: 0.9994 | CI [5, 12]: 0.8 | Fa [5, 12]: 0.9996 | Fa [5, 13]: 1 | CI [6, 10]: 0.9 | Fa [6, 10]: 0.829 | CI [6, 11]: 0.7 | Fa [6, 11]: 0.998 | CI [6, 12]: 0.8 | Fa [6, 12]: 0.999 | Fa [6, 13]: 1 | CI (Combination Index) [7, 9]: 1.4 | Fa (fraction affected) [7, 9]: 0.317 | CI (Combination Index) [7, 10]: 2.3 | Fa (fraction affected) [7, 10]: 0.407 | CI (Combination Index) [7, 11]: 0.5 | Fa (fraction affected) [7, 11]: 0.976 | CI (Combination Index) [7, 12]: 0.3 | Fa (fraction affected) [7, 12]: 0.995 | CI (Combination Index) [8, 9]: 1.5 | Fa (fraction affected) [8, 9]: 0.122 | CI (Combination Index) [8, 10]: 1.5 | Fa (fraction affected) [8, 10]: 0.202 | CI (Combination Index) [8, 11]: 0.7 | Fa (fraction affected) [8, 11]: 0.536 | CI (Combination Index) [8, 12]: 0.5 | Fa (fraction affected) [8, 12]: 0.761

CCCCCCCCCCCCCCCC[C@H](O)[C@@H](N)CO [C19, (2S,3S)-2-amino-1,3-nonadecanediol]
CI (Combination Index) [1, 9]: 1.6 | Fa (fraction affected) [1, 9]: 0.000 | CI (Combination Index) [1, 10]: 0.6 | Fa (fraction affected) [1, 10]: 0.007 | CI (Combination Index) [1, 11]: 0.7 | Fa (fraction affected) [1, 11]: 0.159 | CI (Combination Index) [1, 12]: 0.9 | Fa (fraction affected) [1, 12]: 0.413 | CI (Combination Index) [2, 9]: 2.1 | Fa (fraction affected) [2, 9]: 0.016 | CI (Combination Index) [2, 10]: 1.7 | Fa (fraction affected) [2, 10]: 0.198 | CI (Combination Index) [2, 11]: 1.8 | Fa (fraction affected) [2, 11]: 0.648 | CI (Combination Index) [2, 12]: 0.8 | Fa (fraction affected) [2, 12]: 0.997 | CI [3, 9]: 1.0 | Fa [3, 9]: 0.697 | CI [3, 10]: 0.5 | Fa [3, 10]: 0.980 | CI [3, 11]: 0.5 | Fa [3, 11]: 0.999 | CI [3, 12]: 0.2 | Fa [3, 12]: 1.000 | CI (Combination Index) [4, 9]: 1.2 | Fa (fraction affected) [4, 9]: 0.138 | CI (Combination Index) [4, 10]: 1.0 | Fa (fraction affected) [4, 10]: 0.736 | CI (Combination Index) [4, 11]: 0.8 | Fa (fraction affected) [4, 11]: 0.965 | CI (Combination Index) [4, 12]: 0.8 | Fa (fraction affected) [4, 12]: 0.993 | CI [5, 10]: 0.8 | Fa [5, 10]: 0.9980 | CI [5, 11]: 0.4 | Fa [5, 11]: 0.9999 | Fa [5, 12]: 1.0000 | Fa [5, 13]: 1.0000 | CI [6, 10]: 1.0 | Fa [6, 10]: 0.797 | CI [6, 11]: 0.8 | Fa [6, 11]: 0.996 | CI [6, 12]: 0.8 | Fa [6, 12]: 0.999 | Fa [6, 13]: 1 | CI (Combination Index) [7, 9]: 1.3 | Fa (fraction affected) [7, 9]: 0.530 | CI (Combination Index) [7, 10]: 0.9 | Fa (fraction affected) [7, 10]: 0.882 | CI (Combination Index) [7, 11]: 0.4 | Fa (fraction affected) [7, 11]: 0.991 | CI (Combination Index) [7, 12]: 0.3 | Fa (fraction affected) [7, 12]: 0.998 | CI (Combination Index) [8, 9]: 0.1 | Fa (fraction affected) [8, 9]: 0.787 | CI (Combination Index) [8, 10]: 0.1 | Fa (fraction affected) [8, 10]: 0.881 | CI (Combination Index) [8, 11]: 0.1 | Fa (fraction affected) [8, 11]: 0.943 | CI (Combination Index) [8, 12]: 0.1 | Fa (fraction affected) [8, 12]: 0.978

CCCCCCCCCCCCCCCCC[C@H](O)[C@@H](N)CO [C20, (2S,3S)-2-amino-1,3-icosanediol]
CI (Combination Index) [1, 9]: 2.1 | Fa (fraction affected) [1, 9]: 0.000 | CI (Combination Index) [1, 10]: 4.1 | Fa (fraction affected) [1, 10]: 0.000 | CI (Combination Index) [1, 11]: 1.1 | Fa (fraction affected) [1, 11]: 0.017 | CI (Combination Index) [1, 12]: 1.1 | Fa (fraction affected) [1, 12]: 0.499 | CI (Combination Index) [2, 9]: 0.7 | Fa (fraction affected) [2, 9]: 0.311 | CI (Combination Index) [2, 10]: 1.0 | Fa (fraction affected) [2, 10]: 0.742 | CI (Combination Index) [2, 11]: 1.7 | Fa (fraction affected) [2, 11]: 0.870 | CI (Combination Index) [2, 12]: 0.5 | Fa (fraction affected) [2, 12]: 1.000 | CI [3, 9]: 0.7 | Fa [3, 9]: 0.812 | CI [3, 10]: 0.4 | Fa [3, 10]: 0.987 | CI [3, 11]: 0.7 | Fa [3, 11]: 0.993 | CI [3, 12]: 0.8 | Fa [3, 12]: 0.999 | CI (Combination Index) [4, 9]: 0.8 | Fa (fraction affected) [4, 9]: 0.287 | CI (Combination Index) [4, 10]: 0.6 | Fa (fraction affected) [4, 10]: 0.852 | CI (Combination Index) [4, 11]: 0.6 | Fa (fraction affected) [4, 11]: 0.971 | CI (Combination Index) [4, 12]: 0.4 | Fa (fraction affected) [4, 12]: 0.998 | CI [5, 10]: 0.2 | Fa [5, 10]: 0.9999 | CI [5, 11]: 0.3 | Fa [5, 11]: 1 | Fa [5, 12]: 1 | Fa [5, 13]: 1 | CI [6, 10]: 0.9 | Fa [6, 10]: 0.878 | CI [6, 11]: 0.8 | Fa [6, 11]: 0.996 | CI [6, 12]: 0.8 | Fa [6, 12]: 0.999 | Fa [6, 13]: 1 | CI (Combination Index) [7, 9]: 1.8 | Fa (fraction affected) [7, 9]: 0.645 | CI (Combination Index) [7, 10]: 0.5 | Fa (fraction affected) [7, 10]: 0.984 | CI (Combination Index) [7, 11]: 0.3 | Fa (fraction affected) [7, 11]: 0.998 | CI (Combination Index) [7, 12]: 0.3 | Fa (fraction affected) [7, 12]: 0.999 | CI (Combination Index) [8, 9]: 0.5 | Fa (fraction affected) [8, 9]: 0.259 | CI (Combination Index) [8, 10]: 0.6 | Fa (fraction affected) [8, 10]: 0.366 | CI (Combination Index) [8, 11]: 0.8 | Fa (fraction affected) [8, 11]: 0.453 | CI (Combination Index) [8, 12]: 0.2 | Fa (fraction affected) [8, 12]: 0.956
